Data published in patent publication US7547513B2, “Mutants of deoxycytidine kinase having extended enzymatic activity” (priority 2001, dated 2009).

What was measured:
Assay type in all cases: cell-based
[1] = test system: Escherichia coli β7338 Δdeo tdk cdd::Tn10 pSUDCK4 (dck:D133E-R104Q); settings: strain β7338, dck allele D133E R104Q; 18 h 37° C., MS medium + IPTG
Experimental: (§1) The culture was then diluted 100 times in the same medium supplemented with IPTG and distributed on 96-well microplates in a final volume of 100 μl in a series of dilutions from to 2 to 2 nucleotide analogues. Each analogue was tested twice. After incubation for 18 hours at 37° C. with stirring, the MIC was determined as corresponding to the lowest analogue concentration for which no turbidity was detectable.
(§2) The toxicity of nucleoside analogues, deviating either by the sugar or by the base, was evaluated in strains of genotype Δdeo tdk cdd expressing on a plasmid the different dckH alleles, wild-type allele, D133E, R104Q and double mutant.
(§3) The minimum inhibitory concentrations, expressed in microM, were determined as indicated in the section Materials and Methods.

[2] = test system: Escherichia coli β7334 Δdeo tdk cdd::Tn10 pSUTrc (dck allele: none); settings: strain β7334, dck allele none; 18 h 37° C., MS medium + IPTG
Experimental: as §1, §2, §3

[3] = test system: Escherichia coli β7336 Δdeo tdk cdd::Tn10 pSUDCK2 (dck:D133E); settings: strain β7336, dck allele D133E; 18 h 37° C., MS medium + IPTG
Experimental: The culture was then diluted 100 times in the same medium supplemented with IPTG and distributed on 96-well microplates in a final volume of 100 μl in a series of dilutions from to 2 to 2 nucleotide analogues. Each analogue was tested twice.
as §2, §3

| SMILES | minimum inhibitory concentration (MIC) [1] | minimum inhibitory concentration (MIC) [2] | minimum inhibitory concentration (MIC) [3] |
| --- | --- | --- | --- |
| Nc1nc(=O)n([C@H]2C[C@H](O)[C@@H](CO)O2)cc1Br [5-bromo-dC, 5-bromo-2-deoxycytidine] | > (no toxicity could be detected at the highest analogue concentration, 1.28 mM) | > (no toxicity could be detected at the highest analogue concentration, 1.28 mM) |  |
| O=c1[nH]c(=O)n([C@H]2C[C@H](O)[C@@H](CO)O2)cc1Cl [5-chloro-dU] | > (no toxicity could be detected at the highest analogue concentration, 1.28 mM) | > (no toxicity could be detected at the highest analogue concentration, 1.28 mM) |  |
| O=c1[nH]c(=O)n([C@H]2C[C@H](O)[C@@H](CO)O2)cc1CO [5-hm-dU] | > (no toxicity could be detected at the highest analogue concentration, 1.28 mM) | > (no toxicity could be detected at the highest analogue concentration, 1.28 mM) |  |
| O=c1[nH]c(=O)n([C@H]2C[C@H](O)[C@@H](CO)O2)cc1I [5-iodo-dU] | > (no toxicity could be detected at the highest analogue concentration, 1.28 mM) | > (no toxicity could be detected at the highest analogue concentration, 1.28 mM) |  |
| Cc1cn([C@H]2C[C@H](O)[C@@H](CO)O2)c(N)nc1=O [5-methyl-disoC] | > (no toxicity could be detected at the highest analogue concentration, 1.28 mM) | > (no toxicity could be detected at the highest analogue concentration, 1.28 mM) |  |
| Cc1cn([C@H]2C[C@H](O)[C@@H](CN)O2)c(=O)[nH]c1=O [5′-amino-dT] | > (no toxicity could be detected at the highest analogue concentration, 1.28 mM) | > (no toxicity could be detected at the highest analogue concentration, 1.28 mM) |  |
| Nc1nc2c(ncn2[C@@H]2C[C@H](O)[C@@H](CO)O2)c(=O)o1 [d-oxanosine] | > (no toxicity could be detected at the highest analogue concentration, 1.28 mM) | > (no toxicity could be detected at the highest analogue concentration, 1.28 mM) | 80 µM |
| Nc1ccn([C@H]2CC[C@@H](CO)O2)c(=O)n1 [ddC] | > (no toxicity could be detected at the highest analogue concentration, 1.28 mM) | > (no toxicity could be detected at the highest analogue concentration, 1.28 mM) |  |
| Cc1cn([C@H]2CC[C@@H](CO)O2)c(=O)[nH]c1=O [ddT] | > (no toxicity could be detected at the highest analogue concentration, 1.28 mM) | > (no toxicity could be detected at the highest analogue concentration, 1.28 mM) |  |
| O=c1ccn([C@H]2CC[C@@H](CO)O2)c(=O)[nH]1 [ddU] | > (no toxicity could be detected at the highest analogue concentration, 1.28 mM) | > (no toxicity could be detected at the highest analogue concentration, 1.28 mM) |  |
